These results are taken from US20180153850A1, “COMPOSITIONS AND METHODS FOR TREATMENT OF CANCER” (The Regents of the University of California, priority 2015, published 2018).

Where two headings read alike, the source gives them in different places.

One data set relates to TaxR cells. As to the kind of experiment: Cell growth assay in TaxR cells. The format is cell-based. The conditions noted are these: 24 h, read-out: IC50 value of docetaxel, TaxR cells. As for the experimental part:
Top panel, fluorescent and phase contrast pictures are shown. Lower panel, rhodamine intake ratio. […] Cell numbers were counted after 24 hrs of treatment.
Fluorescent and phase contrast pictures are shown. Lower panel is the rhodamine intake ratio. […] Cell numbers were counted after 24 hrs of treatment. […] The numbers of colonies were counted after 3 weeks.
(§1) Cells were seeded in 12-well plates at a density of 1×10^5 cells per well. Cells were treated and total cell numbers were counted using a Coulter cell counter.

For another data set, the system named is TaxR tumors. As to the kind of experiment: In vivo tumorigenesis assay, TaxR tumors. On the set-up: species or system SCID mice. The conditions noted are these: docetaxel 10 mg/kg i.p. once a week; bicalutamide 25 mg/kg p.o. 5 days a week; 3 weeks. The method, then: (§2) Tumor sizes were measured twice a week. *, P<0.05. **, P<0.01. DTX, docetaxel, Bic, bicalutamide.
(§3) Tumor tissues were harvested after 3 weeks of treatment.

The next data set concerns DU145 cells. As to the kind of experiment: Cell growth assay in parental DU145 cells. Type of data set: cell-based. The conditions noted are these: Homo sapiens, DU-145, read-out: IC50 to docetaxel, 24 hrs. As for the experimental part:
(§4) Top panel, fluorescent and phase contrast pictures are shown. Lower panel, rhodamine intake ratio. […] Cell numbers were counted after 24 hrs of treatment. […] Cell numbers were counted after 24 hrs of treatment. […] Tumor sizes were measured twice a week.
as §1

In another data set the test system is C4-2B tumors. As to the kind of experiment: In vivo tumorigenesis assay, C4-2B tumors. On the set-up: species or system SCID mice. The following applies: docetaxel 10 mg/kg once a week. As for the experimental part:
as §2, §3

The subject of the next data set is DU145-DTXR cells. Description: Cell growth assay in DU145-DTXR cells. The following applies: for IC50: 24 h; for docetaxel resistance in DU145-DTXR cells: 10 nM docetaxel with 0.5 μM elacridar or 20 μM bicalutamide or enzalutamide, 48 hrs. Type of data set: cell-based. As for the experimental part: as §4
DU145-DTXR cells were plated in 12-well plate at 1×10^5 cells per well. […] FIG. 8A: Cell numbers were counted. FIG. 8B: Cell pictures were taken to show the cell survival inhibition.
DU145-DTXR cells were plated in 12-well plate at 1×10^5 cells per well. […] Cell numbers were counted (top panel: bicalutamide; bottom panel: enzalutamide). FIG. 9B: DU145 parental cells and DU145-DTX cells were plated in 12-well plate at 1×10^5 cells per well. […] Cell numbers were counted.
as §1

The target in another data set is ABCB1 (Homo sapiens, UniProt P08183). The following applies: 48 h, 20 μmol/L.
ABCB1, sequence (P08183 whole entry): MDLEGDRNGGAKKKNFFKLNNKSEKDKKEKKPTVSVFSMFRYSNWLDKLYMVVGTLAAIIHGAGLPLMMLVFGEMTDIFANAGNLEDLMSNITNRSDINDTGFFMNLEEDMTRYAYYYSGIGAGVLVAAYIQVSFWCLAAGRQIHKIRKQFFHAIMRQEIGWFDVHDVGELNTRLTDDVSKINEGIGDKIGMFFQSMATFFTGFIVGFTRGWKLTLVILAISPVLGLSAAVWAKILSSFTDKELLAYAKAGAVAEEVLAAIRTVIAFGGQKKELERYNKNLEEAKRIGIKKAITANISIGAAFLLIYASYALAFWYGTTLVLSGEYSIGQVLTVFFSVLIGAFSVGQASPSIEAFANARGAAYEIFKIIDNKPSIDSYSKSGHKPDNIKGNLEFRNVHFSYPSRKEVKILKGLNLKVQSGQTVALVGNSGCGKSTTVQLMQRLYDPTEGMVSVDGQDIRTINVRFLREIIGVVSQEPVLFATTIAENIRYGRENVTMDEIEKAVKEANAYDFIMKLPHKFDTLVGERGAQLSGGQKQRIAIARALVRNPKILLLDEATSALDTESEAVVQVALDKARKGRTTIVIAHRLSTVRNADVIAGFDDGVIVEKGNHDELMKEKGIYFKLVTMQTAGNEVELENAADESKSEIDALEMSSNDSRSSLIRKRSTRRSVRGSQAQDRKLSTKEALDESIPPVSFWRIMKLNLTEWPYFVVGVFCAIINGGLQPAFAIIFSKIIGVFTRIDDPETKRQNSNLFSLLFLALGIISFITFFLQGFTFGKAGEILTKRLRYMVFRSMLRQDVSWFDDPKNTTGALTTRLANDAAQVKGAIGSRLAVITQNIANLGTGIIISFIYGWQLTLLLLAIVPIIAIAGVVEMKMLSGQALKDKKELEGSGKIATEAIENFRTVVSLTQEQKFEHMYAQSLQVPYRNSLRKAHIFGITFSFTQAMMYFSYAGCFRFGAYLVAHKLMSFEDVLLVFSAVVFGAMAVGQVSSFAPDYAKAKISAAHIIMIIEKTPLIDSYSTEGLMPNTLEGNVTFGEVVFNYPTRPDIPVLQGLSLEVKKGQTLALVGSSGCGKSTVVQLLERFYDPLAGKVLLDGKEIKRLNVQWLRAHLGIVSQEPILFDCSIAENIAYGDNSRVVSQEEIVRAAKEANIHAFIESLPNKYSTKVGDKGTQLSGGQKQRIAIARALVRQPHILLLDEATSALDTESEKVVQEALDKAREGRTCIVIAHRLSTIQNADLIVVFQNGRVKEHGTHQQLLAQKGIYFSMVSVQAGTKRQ
A further data set deals with ABCB1 (P-gp) ATPase (Homo sapiens, UniProt P08183). Description: in vitro.
ABCB1 (P-gp) ATPase, sequence (P08183 whole entry): as above
Data set [1] concerns the target ABCB1 (P-glycoprotein, MDR1) (Homo sapiens, UniProt P08183). As to the kind of experiment: in vitro.
Procedure: FIG. 1A: C4-2B and TaxR cells were seeded in 6-well plates at a density of 2×10^5 cells per well. […] Cells were incubated with 1 μg/mL Rhodamine 123 for another 4 hrs. The cells were then washed 3 times with 1×PBS. Fluorescence was detected at an excitation wavelength of 480 nm and an emission wavelength of 534 nm. […] Lower panel, rhodamine intake ratio.
Cells were incubated with 1 μg/mL Rhodamine 123 for another 4 hrs. The cells were then washed three times with 1×PBS. Fluorescence was detected at an excitation wavelength of 480 nm and an emission wavelength of 534 nm. […] Lower panel is the rhodamine intake ratio.
Cells were seeded in 6-well plates at a density of 2×10^5 cells per well. […] The cells were then washed three times with PBS. […] Each experiment was repeated at least 3 times.

ABCB1 (P-glycoprotein, MDR1), sequence (P08183 whole entry): as above

The IC50 is the point on the concentration scale where inhibition reaches its midpoint. Take `CC(=O)O[C@@]12CO[C@@H]1C[C@H](O)[C@@]1(C)C(=O)[C@H](O)C3=C(C)[C@@H](OC(=O)[C@H](O)[C@@H](NC(=O)OC(C)(C)C)c4ccccc4)C[C@@](O)([C@@H](OC(=O)c4ccccc4)[C@H]21)C3(C)C` [docetaxel]: the IC50 with TaxR cells (docetaxel alone, 24 hrs) is 140 nM; with TaxR cells (in combination with 20 μM bicalutamide, 24 hrs), ~5 nM; in the data set with TaxR cells (in combination with 20 μM enzalutamide, 24 hr) it was ~3 nM; in the data set on DU145 cells it was 4.3 nM; in the data set with DU145-DTXR cells (read-out: IC50 to docetaxel), 52 nM; with DU145-DTXR cells (read-out: IC50 value of docetaxel), ~7.5 nM. The “tumor growth of TaxR cells” value with TaxR tumors is “Neither docetaxel nor bicalutamide treatment alone inhibited tumor growth”. For the same molecule, the C4-2B tumor growth result in the data set on C4-2B tumors was “significantly repressed”. Also, the “effect on growth of DU145-DTXR cells” value with DU145-DTXR cells (10 nM docetaxel, 20 μM bicalutamide, alone or combined, 24 hrs) was “only minimal effects”.

The term inhibition denotes how much of the control response was suppressed. Low values mean a response near the control, high ones a response far below the control. In turn, `CNC(=O)c1ccc(N2C(=S)N(c3ccc(C#N)c(C(F)(F)F)c3)C(=O)C2(C)C)cc1F` [enzalutamide] returned a rhodamine intake on ABCB1 of 66.2%. On ABCB1 (P-gp) ATPase, this molecule displayed an inhibition at 40 min, 40 µM of 60%. For the same molecule, in data set [1], the inhibition at 24 h, 20 μM is ~60%. Besides, the “docetaxel resistance in DU145-DTXR cells” value in the data set with DU145-DTXR cells is reported as “reversal of docetaxel resistance”.

For `COc1cc2c(cc1OC)CN(CCc1ccc(NC(=O)c3cccc4c(=O)c5cccc(OC)c5[nH]c34)cc1)CC2` [elacridar], the inhibition at 40 min, 2.5 µM against ABCB1 (P-gp) ATPase was found to be 69%. In addition, the “docetaxel resistance in DU145-DTXR cells” value in the data set on DU145-DTXR cells was “reversal of docetaxel resistance”.
